Values of other authors, collected in US20180140739A1, “HAEMOSTATIC DEVICE” (HAEMOSTATIX LIMITED, priority 2015, published 2018).

Target: T1, fibrinogen hole 'a' and hole 'b' (Homo sapiens, UniProt P02675+P02679)
T1 sequence (P02679 27-433 limits assumed): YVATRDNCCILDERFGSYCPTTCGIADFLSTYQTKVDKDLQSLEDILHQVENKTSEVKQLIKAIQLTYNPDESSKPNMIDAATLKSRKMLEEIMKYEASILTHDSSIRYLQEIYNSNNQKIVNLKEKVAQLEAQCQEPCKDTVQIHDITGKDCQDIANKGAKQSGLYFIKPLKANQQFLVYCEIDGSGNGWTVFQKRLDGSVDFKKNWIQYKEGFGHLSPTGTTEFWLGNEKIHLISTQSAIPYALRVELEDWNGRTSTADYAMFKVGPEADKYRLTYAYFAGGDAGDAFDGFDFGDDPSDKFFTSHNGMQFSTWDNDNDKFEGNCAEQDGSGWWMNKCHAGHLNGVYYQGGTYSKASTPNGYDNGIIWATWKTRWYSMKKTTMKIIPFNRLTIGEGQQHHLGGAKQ
T1 sequence (P02675 31-491): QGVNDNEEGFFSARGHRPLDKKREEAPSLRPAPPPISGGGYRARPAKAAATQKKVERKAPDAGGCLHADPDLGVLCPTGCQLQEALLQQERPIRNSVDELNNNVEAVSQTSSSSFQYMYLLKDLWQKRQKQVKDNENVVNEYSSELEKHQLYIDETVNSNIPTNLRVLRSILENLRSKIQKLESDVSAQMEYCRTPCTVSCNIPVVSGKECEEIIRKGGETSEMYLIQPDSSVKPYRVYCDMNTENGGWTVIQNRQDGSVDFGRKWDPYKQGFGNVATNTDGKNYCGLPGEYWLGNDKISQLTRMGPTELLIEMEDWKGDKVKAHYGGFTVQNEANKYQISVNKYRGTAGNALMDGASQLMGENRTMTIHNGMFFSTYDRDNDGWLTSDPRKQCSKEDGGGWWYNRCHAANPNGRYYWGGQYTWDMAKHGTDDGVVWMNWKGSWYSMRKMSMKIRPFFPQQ
T1 sequence (P02671 20-629 partner limits assumed): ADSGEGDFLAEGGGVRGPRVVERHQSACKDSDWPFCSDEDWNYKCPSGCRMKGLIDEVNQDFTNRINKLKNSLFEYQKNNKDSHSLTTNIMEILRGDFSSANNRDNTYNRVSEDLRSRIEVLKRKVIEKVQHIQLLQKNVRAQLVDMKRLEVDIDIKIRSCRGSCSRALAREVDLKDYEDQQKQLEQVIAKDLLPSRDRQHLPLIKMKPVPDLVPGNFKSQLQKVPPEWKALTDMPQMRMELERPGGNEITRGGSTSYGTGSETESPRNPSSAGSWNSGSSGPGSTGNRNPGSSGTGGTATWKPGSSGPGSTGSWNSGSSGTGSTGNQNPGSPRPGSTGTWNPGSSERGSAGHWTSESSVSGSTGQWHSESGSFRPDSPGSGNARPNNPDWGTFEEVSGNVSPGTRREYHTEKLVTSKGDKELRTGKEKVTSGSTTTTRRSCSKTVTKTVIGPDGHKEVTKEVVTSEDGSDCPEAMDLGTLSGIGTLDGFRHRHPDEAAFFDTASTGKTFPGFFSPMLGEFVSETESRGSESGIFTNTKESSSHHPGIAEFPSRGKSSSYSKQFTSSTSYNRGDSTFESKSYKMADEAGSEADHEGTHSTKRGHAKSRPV
Conditions: cited from earlier work

GPRP
binding preference for hole 'a' / hole 'b' of fibrinogen: binds strongly and preferentially to the ‘a’ hole of fibrinogen
